# From patent US20100152141A1, “COMBINATIONS COMPRISING 5HT6 MODULATORS AND CHOLINESTERASE INHIBITORS” (EPIX DELAWARE, INC, priority 2006, published 2010)
# Experiments:
# [1] = tested on: adult male Lister hooded rats; assay: novel object discrimination (NOD) task, natural forgetting with 4 h inter-trial interval; type: in vivo, rat
# Procedure: NOD testing was performed as described by King et al. (2004 Neuropharmacol. 47 195), and used five separate groups (n=12) of adult male Lister hooded rats (145-235 g). Within each group rats were tested on 3-4 occasions (at one-week intervals) to receive all possible treatment combinations and serve as their own controls.
# [2] = target: 5-HT6 receptor (Homo sapiens, UniProt P50406); assay: 5-HT6 receptor affinity (Ki) of Compound A; type: binding
# 5-HT6 receptor, sequence (P50406 whole entry): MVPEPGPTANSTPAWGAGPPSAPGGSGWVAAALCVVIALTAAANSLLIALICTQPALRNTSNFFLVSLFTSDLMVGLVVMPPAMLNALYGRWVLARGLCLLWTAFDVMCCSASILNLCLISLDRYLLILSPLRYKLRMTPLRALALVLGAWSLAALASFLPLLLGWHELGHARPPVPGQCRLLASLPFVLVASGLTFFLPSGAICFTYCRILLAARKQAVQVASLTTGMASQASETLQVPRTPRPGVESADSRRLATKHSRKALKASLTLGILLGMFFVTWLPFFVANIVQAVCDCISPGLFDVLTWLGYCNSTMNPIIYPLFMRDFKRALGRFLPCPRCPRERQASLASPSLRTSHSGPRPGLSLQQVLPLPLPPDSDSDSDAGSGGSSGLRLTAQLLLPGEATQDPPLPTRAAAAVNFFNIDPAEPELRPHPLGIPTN
SMILES,"natural forgetting (discrimination of novel versus familiar object) ([1]; Aricept 0.1 mg/kg i.p., 20 min pre-treatment, 4 h inter-trial interval)","natural forgetting (discrimination of novel versus familiar object) ([1]; Aricept 0.3 mg/kg i.p., 20 min pre-treatment, 4 h inter-trial interval)","discrimination ratio versus vehicle ([1]; Aricept 1 mg/kg i.p., 20 min pre-treatment)","natural forgetting (discrimination of novel versus familiar object) ([1]; Aricept 1 mg/kg i.p., 20 min pre-treatment, 4 h inter-trial interval, novel versus familiar p<0.001)","natural forgetting (discrimination of novel versus familiar object) ([1]; Compound A 0.3 mg/kg i.p. combined with sub-efficacious dose (0.1 mg/kg i.p.) of Aricept, novel versus familiar p<0.01)",natural forgetting (discrimination of novel versus familiar object) ([1]; Compound A 0.3 mg/kg i.p. given alone),"natural forgetting (discrimination of novel versus familiar object) ([1]; Compound A 1 mg/kg i.p. combined with sub-efficacious dose (0.1 mg/kg i.p.) of Aricept, novel versus familiar p<0.05)",natural forgetting (discrimination of novel versus familiar object) ([1]; Compound A 1 mg/kg i.p. given alone),"natural forgetting (discrimination of novel versus familiar object) ([1]; Compound A 3 mg/kg i.p., 40 min pre-treatment, 4 h inter-trial interval, novel versus familiar p<0.001)","discrimination ratio versus vehicle ([1]; Compound A 3 mg/kg i.p., 40 min pre-treatment, p<0.05 repeated measures ANOVA)","natural forgetting (discrimination of novel versus familiar object) ([1]; Compound A 10 mg/kg i.p., 40 min pre-treatment, 4 h inter-trial interval, novel versus familiar p<0.01)","discrimination ratio versus vehicle ([1]; Compound A 10 mg/kg i.p., 40 min pre-treatment, p<0.05 repeated measures ANOVA)",Ki [2] [nM]
"COc1cc2c(cc1OC)C(=O)C(CC1CCN(Cc3ccccc3)CC1)C2 (stereo not shown) [Aricept, donepezil, reference compound]",lacked effect,lacked effect,without significantly increasing the discrimination ratio,prevented natural forgetting,,,,,,,,,
"COc1cc(Cl)cc(C(C)Nc2cc(N3CCNCC3)ccc2S(C)(=O)=O)c1OC.Cl (stereo not shown) [Compound A, [1-(5-Chloro-2,3-dimethoxy-phenyl)-ethyl]-(2-methanesulfonyl-5-piperazin-1-yl-phenyl)-amine hydrochloride]",,,,,restored discrimination,lacked significant effect,restored discrimination,lacked significant effect,prevented this natural forgetting,increased the discrimination ratio from vehicle levels,prevented this natural forgetting,increased the discrimination ratio from vehicle levels,4
